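All cell lines were grown in 96-well plates and treated with compound for 48 hours. At the TGI there is no net growth.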
Tests used:
Assay in all cases: DTP human tumour cell line panel, 48 h
[1] = tested on: 786-0 renal
[2] = tested on: A498 renal
[3] = tested on: A549 NSCLC
[4] = tested on: ACHN renal
[5] = tested on: BT-549 breast
[6] = tested on: CAKI-1 renal
[7] = tested on: CCRF-CEM leukemia
[8] = tested on: COLO 205 colon
[9] = tested on: DU-145 prostate
[10] = tested on: EKVX NSCLC
[11] = tested on: HCC-2998 colon
[12] = tested on: HCT-116 colon
[13] = tested on: HCT-15 colon
[14] = tested on: HL-60(TB) leukemia
[15] = tested on: HOP-62 NSCLC
[16] = tested on: HOP-92 NSCLC
[17] = tested on: HS 578T breast
[18] = tested on: HT29 colon
[19] = tested on: IGROV1 ovarian
[20] = tested on: K-562 leukemia
[21] = tested on: KM12 colon
[22] = tested on: LOX IMVI melanoma
[23] = tested on: M14 melanoma
[24] = tested on: MALME-3M melanoma
[25] = tested on: MCF7 breast
[26] = tested on: MDA-MB-231 breast
[27] = tested on: MDA-MB-435
[28] = tested on: MDA-N
[29] = tested on: MOLT-4 leukemia
[30] = tested on: NCI-H226 lung
[31] = tested on: NCI-H23 lung
[32] = tested on: NCI-H460 lung
[33] = tested on: NCI-H522 lung
[34] = tested on: NCI/ADR-RES ovarian
[35] = tested on: OVCAR-3 ovarian
[36] = tested on: OVCAR-4 ovarian
[37] = tested on: OVCAR-5 ovarian
[38] = tested on: OVCAR-8 ovarian
[39] = tested on: PC-3 prostate
[40] = tested on: RPMI-8226 leukemia
[41] = tested on: RXF 393 renal
[42] = tested on: SF-268 CNS
[43] = tested on: SF-295 CNS
[44] = tested on: SF-539 CNS
[45] = tested on: SK-MEL-2 melanoma
[46] = tested on: SK-MEL-28 melanoma
[47] = tested on: SK-MEL-5 melanoma
[48] = tested on: SK-OV-3 ovarian
[49] = tested on: SN12C renal
[50] = tested on: SNB-19 CNS
[51] = tested on: SNB-75 CNS
[52] = tested on: SR leukemia
[53] = tested on: SW-620 colon
[54] = tested on: T-47D breast
[55] = tested on: TK-10 renal
[56] = tested on: U251 CNS
[57] = tested on: UACC-257 melanoma
[58] = tested on: UACC-62 melanoma
[59] = tested on: UO-31 renal

Question: For `O=C(O)c1cc(N=Nc2ccc([N+](=O)[O-])cc2)ccc1O`, which TGI [1] is on record?
Answer: > 100 µM

Question: And the TGI [2]?
Answer: 46.6 µM

Question: And the TGI [3]?
Answer: > 100 µM

Question: What about the TGI [4] of the same compound?
Answer: > 100 µM

Question: What about the TGI [5] of the same compound?
Answer: > 100 µM

Question: What about the TGI [6] of the same compound?
Answer: > 100 µM

Question: What about the TGI [7] of the same compound?
Answer: > 100 µM

Question: And the TGI [8]?
Answer: > 100 µM

Question: What about the TGI [9] of the same compound?
Answer: > 100 µM

Question: And the TGI [10]?
Answer: > 100 µM

Question: What about the TGI [11] of the same compound?
Answer: 44.7 µM

Question: And the TGI [12]?
Answer: > 100 µM

Question: What about the TGI [13] of the same compound?
Answer: > 100 µM

Question: What about the TGI [14] of the same compound?
Answer: 73.7 µM

Question: And the TGI [15]?
Answer: > 100 µM

Question: And the TGI [16]?
Answer: 56.9 µM

Question: And the TGI [17]?
Answer: > 100 µM

Question: What about the TGI [18] of the same compound?
Answer: > 100 µM

Question: And the TGI [19]?
Answer: > 100 µM

Question: And the TGI [20]?
Answer: > 100 µM

Question: And the TGI [21]?
Answer: > 100 µM

Question: And the TGI [22]?
Answer: > 100 µM

Question: And the TGI [23]?
Answer: > 100 µM

Question: And the TGI [24]?
Answer: > 100 µM

Question: What about the TGI [25] of the same compound?
Answer: 87.1 µM

Question: And the TGI [26]?
Answer: > 100 µM

Question: And the TGI [27]?
Answer: > 100 µM

Question: And the TGI [28]?
Answer: > 100 µM

Question: What about the TGI [29] of the same compound?
Answer: 77 µM

Question: And the TGI [30]?
Answer: 79.4 µM

Question: What about the TGI [31] of the same compound?
Answer: > 100 µM

Question: And the TGI [32]?
Answer: 83 µM

Question: And the TGI [33]?
Answer: > 100 µM

Question: And the TGI [34]?
Answer: > 100 µM

Question: What about the TGI [35] of the same compound?
Answer: 39.8 µM

Question: And the TGI [36]?
Answer: 80.4 µM

Question: And the TGI [37]?
Answer: > 100 µM

Question: What about the TGI [38] of the same compound?
Answer: > 100 µM

Question: What about the TGI [39] of the same compound?
Answer: > 100 µM

Question: What about the TGI [40] of the same compound?
Answer: 53.3 µM

Question: And the TGI [41]?
Answer: > 100 µM

Question: What about the TGI [42] of the same compound?
Answer: > 100 µM

Question: And the TGI [43]?
Answer: 83.7 µM

Question: And the TGI [44]?
Answer: > 100 µM

Question: What about the TGI [45] of the same compound?
Answer: 78.8 µM

Question: What about the TGI [46] of the same compound?
Answer: > 100 µM

Question: What about the TGI [47] of the same compound?
Answer: > 100 µM

Question: And the TGI [48]?
Answer: > 100 µM

Question: And the TGI [49]?
Answer: > 100 µM

Question: And the TGI [50]?
Answer: > 100 µM

Question: What about the TGI [51] of the same compound?
Answer: > 100 µM

Question: What about the TGI [52] of the same compound?
Answer: > 100 µM

Question: What about the TGI [53] of the same compound?
Answer: > 100 µM

Question: And the TGI [54]?
Answer: > 100 µM

Question: And the TGI [55]?
Answer: 70 µM

Question: And the TGI [56]?
Answer: 68.4 µM

Question: What about the TGI [57] of the same compound?
Answer: 74.7 µM

Question: What about the TGI [58] of the same compound?
Answer: > 100 µM

Question: What about the TGI [59] of the same compound?
Answer: 67.6 µM
